US3989837A, “Pharmaceutical compositions” (Chinoin Gyogyszer-es Vegyeszeti Termekek Gyara RT, priority 1972, dated 1976)
Read-outs that look alike come from different tables or passages of the source.

What was measured:
writhing syndrome = test: Writhing syndrome, comparison with Indomethacine (Table 7); assay type: in vivo, mouse; details: for Effect % average, writhing: male mice
Experimental: The tests were carried out on male mice each weighing 15 to 18 g., starved for 16 hours prior to treatment. 0.1 ml./10 g. body weight of 1% acetic acid solution was injected intraperitoneally to the animals. The sterile inflammation occurred on the action of acetic acid provoked a characteristic syndrome (writhing). The number of writhings was counted during an observation period of 20 minutes, starting 15 minutes after the administration of acetic acid. The substance to be tested was administered orally as a suspension, in a dosage of 0.1 ml./10 g. body weight 2 to 4 hours before the acetic acid injection. The average number of writhings observed for the treated animals was compared to that observed in the control group, and the percentage inhibition was calculated from the difference.

[1] = Toxicity on mice after oral administration, single dosage (Table 1'); assay type: in vivo; details: mouse, in vivo, po, male mice, p.o., 168 hours
Experimental: (§1) The tests were carried out on male mice weighing 25 to 30 g., not starved previously. The compounds were administered in a dosage of 0.2 ml. of suspension per 10 g. body weight. The individual dosages indicated in Table 1' were administered to 10 mice each. The given amount of active agent was added in a single dosage, and the animals were dept under observation for 7 days (= 168 hours). The number of deceased animals was recorded daily.
(§2) The LD50 values were calculated according to the Litchfied-Wilcoxon method, by also taking into account the number of animals perished within 168 hours from the administration.

mice = test: as above; assay type: in vivo; details: for Perished animals/treated animals: male mice
Experimental: as §1, §2

cotton granuloma = test: Cotton granuloma, comparison with Indomethacine (Table 6); assay type: in vivo, rat; details: for Effect %, cotton granuloma: male rats, 7 days
Experimental: Two cotton beads, each weighing 23 to 27 mg., were implanted under the dorsal skin of the animals in aether narcosis, under semisterile conditions, along both sides of the vertebral column. The compound under examination was administered twice a day for 7 days in oral dosages of 0.2 ml./100 g. body weight, in a suspension formed with 1% methyl cellulose. On the 8th day the animals were killed by etheral overnarcosis, the granulomes were removed, dried at 50° C for 5 hours, and then weighed. The animals belonging to the control group were treated similarly, but they received suspending agent only. The percentage efficiacy was calculated from the weight differences of the granuloma tissues observed for the treated and control groups. The significance was examined by the t test.

rats = test: Ulcerogeneous action on rats, comparison with Indomethacine (Table 3'); details: for Animals having lesions on the intestines / Survivals / Ulcer number: male rats, 5 days
carrageenine oedema = test: Rat paw oedema, carrageenine (Table 5'); assay type: in vivo; details: for Effect %, inhibition of carrageenine oedema: female rats
Experimental: (§3) Inflammatory plantar oedema was provided by the subplantar injection of 0.1 ml. of 5% kaoline or 0.5% carrageenine on female rats each weighing 110 to 130 g., starved for 24 hours. The dorsoplantar diameter of the test animals was measured with a double-armed instrument prior to the administration of the phlogistic (basic value) and at regular intervals (at 2, 3.5 and 5 hours for kaoline and at 1.5, 3 and 4.5 hours for carrageenine) after the administration of the phlogistic. […] The treatment was always carried out 1 hour before the administration of the phlogistic. The animals belonging to the control group received suspending agent only. In order to ensure a uniform hydration grade, 1 ml. of tap water was administered through a stomach tube to the animals simultaneously with the administration of the active agent. During the test period the animals were allowed to consume water ad libitum.
(§4) The effect was calculated from the difference of the increase in paw diameter observed in the treated and control groups. The daga are given as percentage efficiacy.
(§5) The significance level was examined by Student's t test. The significance levels are marked by asterisks; the values of the repeated tests are given separately.

kaoline oedema = test: Rat paw oedema, kaoline (Table 4'); assay type: in vivo; details: for Effect % (average), inhibition of kaoline oedema / Effect %, inhibition of kaoline oedema: female rats; for Effect % (average), inhibition of kaoline oedema: average of repeated tests
Experimental: as §3, §4, §5

## COc1ccc2c(c1)c(CC(=O)OCC(Cl)(Cl)Cl)c(C)n2C(=O)c1ccc(Cl)cc1 [Example 5, 1-(p-chlorobenzoyl)-2-methyl-5-methoxy-indol-3-yl-acetic-acid trichloroethyl ester]
Writhing syndrome; p.o. 6.8 (5) mg./kg., 2 hours
  Effect % average, writhing: 24.8%
Writhing syndrome; p.o. 6.8 (5) mg./kg., 4 hours
  Effect % average, writhing: 19.3%
Writhing syndrome; p.o. 17.1 (12.5) mg./kg., 2 hours
  Effect % average, writhing: 56.1%
Writhing syndrome; p.o. 17.1 (12.5) mg./kg., 4 hours
  Effect % average, writhing: 53.5%
Writhing syndrome; writhing, ratio refers to molar equivalents
  dosage provoking the same analgesic effect, times higher than Indomethacine: 2.5 times
[1]; equivalent amounts of Indomethacine, read-out: LD50 as equivalent amount of Indomethacine
  LD50 at 168 h: 1570 mg/kg
[1]; read-out: LD50
  LD50 at 168 h: 2150 mg/kg
mice; considering the toxicity values
  therapeutical width compared with Indomethacine: far more favorable than that of Indomethacine
mice; oral 1367 (1000) mg./kg., 24 h
  Perished animals/treated animals: 0/10
mice; oral 1367 (1000) mg./kg., 48 h
  Perished animals/treated animals: 0/10
mice; oral 1367 (1000) mg./kg., 72 h
  Perished animals/treated animals: 0/10
mice; oral 1367 (1000) mg./kg., 96 h
  Perished animals/treated animals: 0/10
mice; oral 1367 (1000) mg./kg., 120 h
  Perished animals/treated animals: 0/10
mice; oral 1367 (1000) mg./kg., 144 h
  Perished animals/treated animals: 0/10
mice; oral 1367 (1000) mg./kg., 168 h
  Perished animals/treated animals: 0/10
mice; oral 2050 (1500) mg./kg., 24 h
  Perished animals/treated animals: 0/10
mice; oral 2050 (1500) mg./kg., 48 h
  Perished animals/treated animals: 0/10
mice; oral 2050 (1500) mg./kg., 72 h
  Perished animals/treated animals: 0/10
mice; oral 2050 (1500) mg./kg., 96 h
  Perished animals/treated animals: 0/10
mice; oral 2050 (1500) mg./kg., 120 h
  Perished animals/treated animals: 0/10
mice; oral 2050 (1500) mg./kg., 144 h
  Perished animals/treated animals: 0/10
mice; oral 2050 (1500) mg./kg., 168 h
  Perished animals/treated animals: 1/10
mice; oral 2734 (2000) mg./kg., 24 h
  Perished animals/treated animals: 0/10
mice; oral 2734 (2000) mg./kg., 48 h
  Perished animals/treated animals: 0/10
mice; oral 2734 (2000) mg./kg., 72 h
  Perished animals/treated animals: 2/10
mice; oral 2734 (2000) mg./kg., 96 h
  Perished animals/treated animals: 2/10
mice; oral 2734 (2000) mg./kg., 120 h
  Perished animals/treated animals: 4/10
mice; oral 2734 (2000) mg./kg., 144 h
  Perished animals/treated animals: 6/10
mice; oral 2734 (2000) mg./kg., 168 h
  Perished animals/treated animals: 6/10
mice; oral 3417 (2500) mg./kg., 24 h
  Perished animals/treated animals: 0/10
mice; oral 3417 (2500) mg./kg., 48 h
  Perished animals/treated animals: 1/10
mice; oral 3417 (2500) mg./kg., 72 h
  Perished animals/treated animals: 1/10
mice; oral 3417 (2500) mg./kg., 96 h
  Perished animals/treated animals: 3/10
mice; oral 3417 (2500) mg./kg., 120 h
  Perished animals/treated animals: 4/10
mice; oral 3417 (2500) mg./kg., 144 h
  Perished animals/treated animals: 6/10
mice; oral 3417 (2500) mg./kg., 168 h
  Perished animals/treated animals: 7/10
mice; oral 4101 (3000) mg./kg., 24 h
  Perished animals/treated animals: 0/10
mice; oral 4101 (3000) mg./kg., 48 h
  Perished animals/treated animals: 1/10
mice; oral 4101 (3000) mg./kg., 72 h
  Perished animals/treated animals: 3/10
mice; oral 4101 (3000) mg./kg., 96 h
  Perished animals/treated animals: 4/10
mice; oral 4101 (3000) mg./kg., 120 h
  Perished animals/treated animals: 5/10
mice; oral 4101 (3000) mg./kg., 144 h
  Perished animals/treated animals: 7/10
mice; oral 4101 (3000) mg./kg., 168 h
  Perished animals/treated animals: 7/10
Cotton granuloma; even when added in a twofold dosage
  effect on cotton granuloma compared with Indomethacine: lower than that of Indomethacine
Cotton granuloma; oral daily 5.5 (4) mg./kg., p 0.01
  Effect %, cotton granuloma: 19.5%
Cotton granuloma; oral daily 11 (8) mg./kg., p 0.001
  Effect %, cotton granuloma: 24.8%
rats; oral 27.3 (20) mg./kg.
  Animals having lesions on the intestines: 10.5%
  Survivals: 19
  Ulcer number: 0
rats; oral 54.7 (40) mg./kg.
  Animals having lesions on the intestines: 80%
  Survivals: 15
  Ulcer number: 0.27
rats; rats, oral, fivefold dosage
  frequency of occurrence of intestinal lesions compared with Indomethacine: doubled
  lesions on intestines compared with Indomethacine: far more severe
rats; rats, oral, fivefold dosage with respect to Indomethacine (8 mg./kg.)
  extent of perishment, lower than that caused by Indomethacine 8 mg./kg.: 50%
rats; rats, oral, Indomethacine 4 and 8 mg./kg., […]
  lesions on the mucous membrane of the stomach: slightly more severe lesions
Carrageenine oedema; carrageenine oedema, molar equivalents compared
  dosage inhibiting oedema, times higher than Indomethacine: about 2.5 times
Carrageenine oedema; p.o. 13.67 (10) mg./kg., 1.5 hours
  Effect %, inhibition of carrageenine oedema: 9.8%
Carrageenine oedema; p.o. 13.67 (10) mg./kg., 3 hours
  Effect %, inhibition of carrageenine oedema: 15.8%
Carrageenine oedema; p.o. 13.67 (10) mg./kg., 4.5 hours
  Effect %, inhibition of carrageenine oedema: 16.0%
Carrageenine oedema; p.o. 34.17 (25) mg./kg., 1.5 hours
  Effect %, inhibition of carrageenine oedema: 10.8%
Carrageenine oedema; p.o. 34.17 (25) mg./kg., 3 hours
  Effect %, inhibition of carrageenine oedema: 18.3%
Carrageenine oedema; p.o. 34.17 (25) mg./kg., 4.5 hours
  Effect %, inhibition of carrageenine oedema: 21.9%
Carrageenine oedema; p.o. 68.35 (50) mg./kg., 1.5 hours
  Effect %, inhibition of carrageenine oedema: 14.8%
Carrageenine oedema; p.o. 68.35 (50) mg./kg., 3 hours
  Effect %, inhibition of carrageenine oedema: 19.9%
Carrageenine oedema; p.o. 68.35 (50) mg./kg., 4.5 hours
  Effect %, inhibition of carrageenine oedema: 28.5%
Kaoline oedema; p.o. 13.67 (10) mg./kg., 2 hours
  Effect % (average), inhibition of kaoline oedema: 10.2%
Kaoline oedema; p.o. 13.67 (10) mg./kg., 3.5 hours
  Effect % (average), inhibition of kaoline oedema: 15.8%
Kaoline oedema; p.o. 13.67 (10) mg./kg., 5 hours
  Effect % (average), inhibition of kaoline oedema: 18.8%
Kaoline oedema; p.o. 34.17 (25) mg./kg., 2 hours
  Effect % (average), inhibition of kaoline oedema: 12.0%
Kaoline oedema; p.o. 34.17 (25) mg./kg., 3.5 hours
  Effect % (average), inhibition of kaoline oedema: 22.1%
Kaoline oedema; p.o. 34.17 (25) mg./kg., 5 hours
  Effect % (average), inhibition of kaoline oedema: 27.3%
Kaoline oedema; p.o. 68.35 (50) mg./kg., 2 hours
  Effect %, inhibition of kaoline oedema: 21.9%
Kaoline oedema; p.o. 68.35 (50) mg./kg., 3.5 hours
  Effect %, inhibition of kaoline oedema: 30.2%
Kaoline oedema; p.o. 68.35 (50) mg./kg., 5 hours
  Effect %, inhibition of kaoline oedema: 33.3%
Kaoline oedema; p.o. 136.7 (100) mg./kg., 2 hours
  Effect %, inhibition of kaoline oedema: 26.9%
Kaoline oedema; p.o. 136.7 (100) mg./kg., 3.5 hours
  Effect %, inhibition of kaoline oedema: 41.1%
Kaoline oedema; p.o. 136.7 (100) mg./kg., 5 hours
  Effect %, inhibition of kaoline oedema: 37.9%
Kaoline oedema; kaoline oedema, molar equivalents compared
  dosage inhibiting oedema, times higher than Indomethacine: about 2.5 times
Kaoline oedema; summary of the comparison
  antiphlogistic effect, times weaker than Indomethacine: about 2.5 times
